Data: article PMC10447463, “Data-mining unveils structure–property–activity correlation of viral infectivity enhancing self-assembling peptides” (Nature Communications, 2023)
Read-outs that look alike come from different tables or passages of the source.

Legend:
[1] = Zeta-potential measurement; type: physicochemical; conditions: for Zeta pot. / mV: 1 mg/mL in PBS pH 7.4 from 10 mg/mL DMSO stock, 1 d RT, 60 µL diluted in 600 µL 1 mM KCl, Zetasizer Nano ZS, Smoluchowski, mean of triplicate
Outline: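 In this measurement, peptides aggregated for a day at RT in phosphate-buffered saline (pH 7.4, 1 mg/mL) are diluted into 1 mM potassium chloride, and the electrophoretic mobility is translated into zeta potential by Smoluchowski's relation.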

[2] = Turbidity, derived count rate of scattered light; type: physicochemical; conditions: for Count Rate / kcps: derived count rate of scattered light at 633 nm, 173°, from zeta-potential measurement, 0.1 mg/mL in 1 mM KCl after 1 d at 1 mg/mL in PBS, turbidity / microscopic aggregation, mean of triplicate
Outline: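 Samples: 1 mg/mL in PBS pH 7.4 (from DMSO), 1 d at RT, then diluted in 1 mM KCl immediately before measurement. Triplicates, two independent runs averaged.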

[3] = type: physicochemical; design: key to Fibril / Fibril Formation / TEM 2cat / Fibril: 1 = fibrils present; 0 non-fibrillar structures; conditions: for Fibril / Fibril Formation: 1 mg/mL, uranyl acetate stain, qualitative
[4] = Turbidity, derived count rate of scattered light; type: physicochemical; conditions: for Count Rate: derived count rate of scattered light (turbidity); for Log10 Count Rate: turbidity, derived count rate of scattered light, data of Figure 2D
[5] = β-sheet content by ATR-FT-IR; type: physicochemical; conditions: for b -sheet / %: Fig. S7 panel A, β-sheet content by ATR-FT-IR; for ß-sheet / %: ATR-FT-IR of lyophilised 1 mg/mL PNF solution, peak integral ratio 1625-1635 cm-1, measured once
Outline: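 Fluorescence at 470 nm (365 nm excitation) was read 20 min after adding fluorescamine to DMSO-dissolved filtrate and unfiltered PNF, then CR computed as 100 − 100 × filtrate/original. Secondary structure came from ATR FT-IR spectra of lyophilized PNF powder.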

[6] = zeta potential of peptide assemblies
[7] = zeta-potential of peptide, source data of Figure 2C
[8] = zeta-potential of the peptide assemblies, mean, Figure 3A source data
[9] = Log10 of derived count rate of scattered light (turbidity)
[10] = log10 of derived count rate of scattered light (turbidity)
[11] = turbidity, Log10 of derived count rate of scattered light, Figure 3A source data
[12] = Fig S10 panel D, fibril category by TEM
[13] = TEM, 1 = fibrils present, 0 = non-fibrillar
[14] = TEM, 1 = fibrils present, 0 = non-fibrillar structures
[15] = category: fibrils present or non-fibrillar
[16] = logarithm of count rate in kcps
[17] = turbidity, log10 of derived count rate of scattered light
[18] = FigS12 panel A, fibril category by TEM

Sequence | Zeta-Potential / mV [1, 7] | Zeta-Potential / mV [1, 8] | Log10 Count Rate [2, 9] | Count Rate / kcps [2] | Log10 Count Rate [2, 11] | Fibril / Fibril Formation ([3]; TEM) | Fibril [3, 13] | Fibril [3, 14] | TEM 2cat [3, 15] | Count Rate [4] | Log10 Count Rate [4] | b -sheet / % [5] | Zeta-Pot. [1] | Log10 Count Rate [2, 17] | TEM 2cat ([3]; Fig S10 panel D) | Fibril ([3]; Fig S10 panel E) | TEM 2cat [3, 18] | Fibril ([3]; FigS12 panel B, TEM) | also measured
MKIKIQINMWQ | 11.2 mV | 10.8 mV | 3.169 | 1475 kcps | 3.169 | 1 | 1 | 1 | 1 | 1475 | 3.169 | 39.2% | – | – | – | – | – | – | Zeta-Pot. [1, 6]: 10.8; Log10 Count Rate [2, 10]: 3.169; TEM 2cat [3, 12]: 1
QCKAKAQANM | -4.641 mV | -8.36 mV | 2.31 | 204 kcps | 2.31 | 0 | 0 | 0 | – | 204.1 | 2.31 | 35.27% | -8.357 | 2.31 | 0 | 0 | 0 | 0 | Zeta pot. / mV [1]: -8.4 mV; Log10 Count Rate [2, 16]: 2.3; ß-sheet / % [5]: 35%
QCKAKAQANMWQ | -4.813 mV | -8.05 mV | 2.631 | 428 kcps | 2.631 | 0 | 0 | 0 | – | 427.5 | 2.631 | 32.8999% | -8.05 | 2.631 | 0 | 0 | 0 | 0 | Zeta pot. / mV [1]: -8.1 mV; Log10 Count Rate [2, 16]: 2.6; ß-sheet / % [5]: 33%
QCKFKQFF | 3.089 mV | 4.94 mV | 2.353 | 225 kcps | 2.353 | 1 | 1 | 1 | – | 225.4 | 2.353 | 32.34% | 4.94 | 2.353 | 1 | – | 1 | 1 | –
QCKFKQFFNM | 15.12 mV | 13.67 mV | 4.016 | 10385 kcps | 4.016 | 1 | 1 | 1 | 1 | 10384.7 | 4.016 | 41.8396% | 13.67 | 4.016 | 1 | 1 | – | – | –
QCKFKQFFNMWQ | 11.04 mV | 9.59 mV | 4.277 | 18911 kcps | 4.277 | 1 | 1 | 1 | 1 | 18911.36667 | 4.277 | 41.78% | 9.587 | 4.277 | 1 | 1 | – | – | –
QCKIKIQINM | 11.15 mV | 11.37 mV | 3.979 | 9524 kcps | 3.979 | 1 | 1 | 1 | 1 | 9524 | 3.979 | 37.11% | 11.37 | 3.979 | 1 | 1 | – | – | –
RGDCKFKFQF | 16.37 mV | 13.87 mV | 3.1264 | 1338 kcps | 3.1264 | 1 | 1 | 1 | 1 | 1338 | 3.1264 | 46.68% | – | – | – | 1 | – | – | Zeta-Pot. [1, 6]: 13.87; Log10 Count Rate [2, 10]: 3.1264; TEM 2cat [3, 12]: 1
